This note sets out measurements from US20230165867A1 (CHENGDU BAIYU PHARMACEUTICAL CO., LTD., priority 2020, published 2023).

SMILES strings stand for the structures. Where two headings read alike, the source gives them in different places.

Data set [1] in a line: Pharmacokinetic assay in ICR mice (i.v. and p.o.). It is filed as in vivo. The conditions noted are these: mouse, plasma, male ICR mice; for half-life: read-out: T½ (converted); for bioavailability: po 10 mg/kg vs iv 1 mg/kg. The method in brief: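 Fasted male ICR mice (18-22 g) dosed at 1 mg/kg i.v. or 10 mg/kg p.o. in 5% DMSO/95% 30% HP-β-CD, three mice per time point. Submandibular plasma sampled up to 24 h, assayed by LC/MS/MS.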

Data set [2] concerns the target T1, DNA-PK kinase (Homo sapiens, UniProt P78527).
T1 construct: purchased Promega V4107
Description: Inhibition assay of DNA-PK kinase (Promega kit, ADP-Glo chemiluminescence). The data set is classed as biochemical. The conditions noted are these: 50 µM ATP, 37° C., 60 min; read-out: IC50 (nM), inhibitory activity on DNA-PK kinase. The method in brief: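 Compounds incubated with DNA-PK at 37° C for 60 min; reaction stopped with ADP-Glo reagent (40 min, RT), then kinase detection reagent (30 min, RT). ADP formed read by luminescence against an ADP standard curve.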
(ADP-Glo first removes unused ATP, then detects ADP through luciferase.)

Data set [3] is described as follows: Metabolic stability in liver microsomes. The data set is classed as in vitro ADME, human. The conditions noted are these: human, human liver microsomes; 0.5 µM test substance, 0.5 mg/mL microsomes, NADPH and UDPGA, 37° C.; read-out: T½(min), stability in human liver microsomes. As for the experimental part:
Liver microsomes (purchased from Reed Liver Disease Research (Shanghai) Co., Ltd., product: human liver microsomes (NJT)); NADPH (purchased from Roche, Lot: 40939); UDPGA; the compounds of the present invention (test substances).
• (1) A mixed working solution of testosterone (0.5 µM) and 7-hydroxycoumarin (0.5 µM) was prepared. • (2) A mixed solution of NADPH (1 mM) and UDPGA (1 mM) was prepared, and prewarmed at 37° C. in a water bath shaker before use. • (3) Liver microsomes were thawed and diluted with a buffer. • (4) A preparation of a test substance (0.5 µM) and a solution of liver microsomes (0.5 mg/mL) were added to each well of an incubation plate. • (5) Three experimental groups were set and samples were added. Test group: the test substance was incubated with liver microsomes for 0 min, 30 min, 60 min, and 120 min in the presence of the coenzyme NADPH and UDPGA; Positive control group: testosterone (0.5 µM) and 7-hydroxycoumarin (0.5 µM) were incubated with microsomes for 0 min and 120 min in the presence of the coenzyme NADPH and UDPGA; Negative control group: the test substance was incubated with microsomes for 0 and 120 min without any coenzyme. • (6) All samples were incubated at 37° C., and pre-cooled methanol was added at each termination time (0, 15, 30, 45, 60 min, 120 min) to terminate the reaction, and the time was recorded. • (7) All samples were mixed well and centrifuged at 4000 rpm for 10 min. The supernatant was taken and measured by LC-MS/MS for the amount of the test substance remaining in the samples. Data analysis was carried out as follows: T½=0.693 /k, Clint = (0.693/T½) × (1 /(microsomal protein) × Scaling Factors), Note: k is the slope of the logarithm of the remaining amounts of compound versus time.

As usually defined, the AUC is concentration integrated over time. As a reminder, the Cmax is the highest concentration seen after dosing. As a reminder, the IC50 is the point on the concentration scale where inhibition reaches its midpoint. Turning to `Cc1cc(C#N)ccc1Nc1ncc2c(n1)n([C@H]1CC[C@H](C#N)CC1)c(=O)n2C` [Compound 80, 4-((9-(trans-4-cyanocyclohexyl)-7-methyl-8-oxo-8,9-dihydro-7H-purin-2-yl)amino)-3-methylbenzonitrile], in data set [1] (iv, 1 mg/kg), the area under the curve (AUC) turned out to be 6300 ng·h/mL and the half-life is 3.12 h. The bioavailability in data set [1] amounted to 33.6%. In data set [1] (po, 10 mg/kg), the exposure (AUC) was 21200 ng·h/mL, the concentration peaked (Cmax) at 3570 ng/mL and the half-life was 2.16 h. Moreover, in data set [2], the IC50 came to 11.1 nM. In addition, in data set [3], the half-life at 0.5 µM is above 120 min.
Regarding `Cc1cc(C(N)=O)c(F)cc1Nc1ncc2c(n1)n([C@H]1C[C@H](O)C1)c(=O)n2C` [Compound 93, 2-Fluoro-4-((9-(trans-3-hydroxycyclobutyl)-7-methyl-8-oxo-8,9-dihydro-7H-purin-2-yl)amino)-5-methylbenzamide], in data set [2], the 50% inhibitory concentration (IC50) was found to be 0.75 nM. Besides, the half-life at 0.5 µM in data set [3] is above 120 min.
Consider `Cc1sc(C(N)=O)cc1Nc1ncc2c(n1)n(C1CCOCC1)c(=O)n2C` [Compound 42, 5-Methyl-4-((7-methyl-8-oxo-9-(tetrahydro-2H-pyran-4-yl)-8,9-dihydro-7H-purin-2-yl)amino)thiophene-2-carboxamide], for which, in data set [1] (iv, 1 mg/kg), the exposure (AUC) is 230 ng·h/mL and the half-life is 1.41 h. Besides, the bioavailability in data set [1] was determined as 70%. Moreover, in data set [1] (po, 10 mg/kg), the exposure (AUC) turned out to be 1500 ng·h/mL, the peak level (Cmax) was 858 ng/mL and the half-life was 1.73 h. Also, in data set [2], the IC50 was 2.05 nM. In data set [3], the half-life at 0.5 µM is above 120 min.
For the compound `Cc1cc(C(N)=O)c(F)cc1Nc1ncc2c(n1)n(C1CCN(C)CC1)c(=O)n2C` [Compound 82, 2-Fluoro-5-methyl-4-((7-methyl-9-(1-methylpiperidin-4-yl)-8-oxo-8,9-dihydro-7H-purin-2-yl)amino)benzamide], the IC50 in data set [2] is 24.5 nM. Further, in data set [3], the half-life at 0.5 µM was above 120 min.
For `Cc1cc(C(N)=O)c(F)cc1Nc1ncc2c(n1)n(C1CC3CCC(C1)O3)c(=O)n2C` (centres unmarked) [Compound 85, 4-((9-(8-oxabicyclo[3.2.1]octan-3-yl)-7-methyl-8-oxo-8,9-dihydro-7H-purin-2-yl)amino)-2-fluoro-5-methylbenzamide], in data set [2], the IC50 was 1.1 nM. In data set [3], the half-life at 0.5 µM is above 120 min.
As to `Cn1c(=O)n(C2CCOCC2)c2nc(Nc3ccc(C(N)=O)cc3Cl)ncc21` [Compound 26, 3-Chloro-4-((7-methyl-8-oxo-9-(tetrahydro-2H-pyran-4-yl)-8,9-dihydro-7H-purin-2-yl)amino)benzamide], in data set [1] (iv, 1 mg/kg), the AUC came out at 639 ng·h/mL and the half-life is 1.52 h. Moreover, in data set [1], the bioavailability came to 110%. In data set [1] (po, 10 mg/kg), the exposure (AUC) amounted to 7100 ng·h/mL, the concentration peaked (Cmax) at 2730 ng/mL and the half-life is 2.99 h. Besides, the IC50 in data set [2] worked out at 7.6 nM. Also, in data set [3], the half-life at 0.5 µM was above 120 min.
Turning to `CCOc1cc(Nc2ncc3c(n2)n(C2CCOCC2)c(=O)n3C)c(C)cc1C(N)=O` [Compound 53, 2-Ethoxy-5-methyl-4-((7-methyl-8-oxo-9-(tetrahydro-2H-pyran-4-yl)-8,9-dihydro-7H-purin-2-yl)amino)benzamide], the IC50 in data set [2] was found to be 0.32 nM. Further, the half-life at 0.5 µM in data set [3] is above 120 min.
Turning to `Cc1cc(C(N)=O)c(F)cc1Nc1ncc2c(n1)n([C@H]1CCOC1)c(=O)n2C` [Compound 75, (S)-2-fluoro-5-methyl-4-((7-methyl-8-oxo-9-(tetrahydrofuran-3-yl)-8,9-dihydro-7H-purin-2-yl)amino)benzamiderile], in data set [1] (iv, 1 mg/kg), the AUC was 109 ng·h/mL and the half-life is 0.31 h. In addition, the bioavailability in data set [1] was found to be 69.2%. In data set [1] (po, 10 mg/kg), the exposure (AUC) was determined as 756 ng·h/mL, the highest level (Cmax) was 984 ng/mL and the half-life is 2.1 h. In addition, in data set [2], the half-inhibitory concentration (IC50) came to 5.69 nM. Moreover, the half-life at 0.5 µM in data set [3] was above 120 min.
As for `Cc1cc(C(N)=O)c(F)cc1Nc1ncc2c(n1)n(C1CCC(F)(F)CC1)c(=O)n2C` [Compound 83, 4-((9-(4,4-difluorocyclohexyl)-7-methyl-8-oxo-8,9-dihydro-7H-purin-2-yl)amino)-2-fluoro-5-methylbenzamide], the concentration for half-maximal inhibition (IC50) in data set [2] worked out at 0.43 nM. For the same compound, the half-life at 0.5 µM in data set [3] was above 120 min.
Regarding `Cc1cc(C(N)=O)c(F)cc1Nc1ncc2c(n1)n([C@H]1CC[C@@H](C#N)CC1)c(=O)n2C` [Compound 77, 4-((9-(cis-4-cyanocyclohexyl)-7-methyl-8-oxo-8,9-dihydro-7H-purin-2-yl)amino)-2-fluoro-5-methylbenzamide], in data set [1] (iv, 1 mg/kg), the area under the curve (AUC) was determined as 545 ng·h/mL and the half-life is 1.55 h. Further, the bioavailability in data set [1] was 108%. Besides, in data set [1] (po, 10 mg/kg), the AUC was determined as 5970 ng·h/mL, the Cmax was 1750 ng/mL and the half-life is 3.24 h. Besides, the IC50 in data set [2] came out at 4.67 nM. Also, the half-life at 0.5 µM in data set [3] was above 120 min.
In the case of `CNC(=O)c1cc(C)c(Nc2ncc3c(n2)n(C2CCOCC2)c(=O)n3C)cn1` [Compound 54, N,4-Dimethyl-5-((7-methyl-8-oxo-9-(tetrahydro-2H-pyran-4-yl)-8,9-dihydro-7H-purin-2-yl)amino)picolinamide], in data set [1] (iv, 1 mg/kg), the AUC was 840 ng·h/mL and the half-life is 5.22 h. Further, the bioavailability in data set [1] was found to be 63.9%. In addition, in data set [1] (po, 10 mg/kg), the AUC worked out at 5370 ng·h/mL, the Cmax is 2060 ng/mL and the half-life is 3.21 h. In addition, in data set [2], the IC50 came out at 8.07 nM. In addition, in data set [3], the half-life at 0.5 µM was above 120 min.
Turning to `Cc1cc(C(N)=O)c(F)cc1Nc1ncc2c(n1)n([C@@H]1CCOC1)c(=O)n2C` [Compound 76, (R)-2-fluoro-5-methyl-4-((7-methyl-8-oxo-9-(tetrahydrofuran-3-yl)-8,9-dihydro-7H-purin-2-yl)amino)benzamiderile], in data set [1] (iv, 1 mg/kg), the AUC was 120 ng·h/mL and the half-life is 0.3 h. The bioavailability in data set [1] was 104%. Also, in data set [1] (po, 10 mg/kg), the area under the curve (AUC) came to 1360 ng·h/mL, the highest concentration (Cmax) is 1570 ng/mL and the half-life is 0.93 h. The IC50 in data set [2] came out at 1.96 nM. Moreover, the half-life at 0.5 µM in data set [3] is above 120 min.
Take `COc1cc(C)c(Nc2ncc3c(n2)n(C2CCOCC2)c(=O)n3C)cn1` [Compound 9, 2-((6-methoxy-4-methylpyridin-3-yl)amino)-7-methyl-9-(tetrahydro-2H-pyran-4-yl)-7,9-dihydro-8H-purin-8-one]: in data set [1] (iv, 1 mg/kg), the exposure (AUC) worked out at 323 ng·h/mL and the half-life was 0.41 h. In addition, in data set [1], the bioavailability amounted to 51.4%. Also, in data set [1] (po, 10 mg/kg), the AUC stood at 1660 ng·h/mL, the Cmax was 1490 ng/mL and the half-life is 1.34 h. Besides, the IC50 in data set [2] is 0.47 nM. Besides, in data set [3], the half-life at 0.5 µM is above 120 min.
`Cc1cc(C(N)=O)c(C(F)(F)F)cc1Nc1ncc2c(n1)n(C1CCOCC1)c(=O)n2C` [Compound 48, 5-Methyl-4-((7-methyl-8-oxo-9-(tetrahydro-2H-pyran-4-yl)-8,9-dihydro-7H-purin-2-yl)amino)-2-(trifluoromethyl)benzamide]: the IC50 in data set [2] worked out at 1.96 nM. Moreover, in data set [3], the half-life at 0.5 µM is above 120 min.
For the compound `CCNC(=O)c1ccc(Nc2ncc3c(n2)n(C2CCOCC2)c(=O)n3C)c(C)c1` [Compound 29, N-ethyl-3-methyl-4-((7-methyl-8-oxo-9-(tetrahydro-2H-pyran-4-yl)-8,9-dihydro-7H-purin-2-yl)amino)benzamide], in data set [1] (iv, 1 mg/kg), the AUC came to 609 ng·h/mL and the half-life is 0.46 h. In data set [1], the bioavailability stood at 42.1%. In data set [1] (po, 10 mg/kg), the AUC stood at 2560 ng·h/mL, the concentration peaked (Cmax) at 1820 ng/mL and the half-life was 1.22 h. In addition, the IC50 in data set [2] came to 3.9 nM. The half-life at 0.5 µM in data set [3] is above 120 min.
With `[2H]C([2H])([2H])NC(=O)c1cc(C)c(Nc2ncc3c(n2)n(C2CCOCC2)c(=O)n3C)cn1` [Compound 39, 4-Methyl-N-(methyl-d3)-5-((7-methyl-8-oxo-9-(tetrahydro-2H-pyran-4-yl)-8,9-dihydro-7H-purin-2-yl)amino)picolinamide], in data set [2], the IC50 is 5.7 nM. Further, in data set [3], the half-life at 0.5 µM is above 120 min.
